Test results as given in PMC9469100, “Turning Nonselective Inhibitors of Type I Protein Arginine Methyltransferases into Potent and Selective Inhibitors of Protein Arginine Methyltransferase 4 through a Deconstruction–Reconstruction and Fragment-Growing Approach” (Journal of Medicinal Chemistry, 2022).
Read-outs that look alike come from different tables or passages of the source.

What was measured:
[1] = molecular target: T1, human PRMT4 (full length) (Homo sapiens, UniProt Q86X55); experiment: SPR binding to immobilized PRMT4; conditions: for τR: in vitro residence time, τ = 1/koff
T1 construct: Full-length recombinant PRMT4 (Active motif, # 81107); purchased Active motif # 81107
T1 sequence (Q86X55 1-608): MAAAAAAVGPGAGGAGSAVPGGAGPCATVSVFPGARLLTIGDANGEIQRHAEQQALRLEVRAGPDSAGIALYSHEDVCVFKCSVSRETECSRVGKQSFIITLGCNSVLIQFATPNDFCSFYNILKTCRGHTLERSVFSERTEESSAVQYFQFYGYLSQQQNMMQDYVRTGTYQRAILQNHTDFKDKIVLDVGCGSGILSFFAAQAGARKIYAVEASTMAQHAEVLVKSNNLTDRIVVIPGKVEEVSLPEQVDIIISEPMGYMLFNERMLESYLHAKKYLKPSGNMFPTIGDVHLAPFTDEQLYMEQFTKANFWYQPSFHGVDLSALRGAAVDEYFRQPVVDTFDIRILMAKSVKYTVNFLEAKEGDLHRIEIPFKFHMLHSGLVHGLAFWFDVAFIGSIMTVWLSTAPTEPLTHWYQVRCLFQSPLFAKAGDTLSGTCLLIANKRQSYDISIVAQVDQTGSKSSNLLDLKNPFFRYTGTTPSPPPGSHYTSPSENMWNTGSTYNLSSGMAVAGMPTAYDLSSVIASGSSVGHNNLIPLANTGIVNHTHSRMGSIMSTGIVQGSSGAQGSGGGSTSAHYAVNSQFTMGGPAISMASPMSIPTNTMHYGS
Procedure: To this aim, human PRMT4 (full length) was covalently immobilized on a sensor chip surface using an amine-coupling approach, and the three compounds were injected at different concentrations over the protein surface. To reduce false positives from detergent-sensitive, nonspecific aggregation-based binding, detergents (0.05% Tween-20) were added to the running buffer in all experiments.
SPR experiments were performed on a Biacore T200 biosensor (Cytiva). PBS buffer (phosphate-buffered saline, pH 7.4) supplemented with 0.05% Tween-20 was used as the running buffer. […] One flow cell was left empty for background subtractions. […] Each compound was tested in […], prepared starting from 640 to 10 nM. Binding experiments were performed at 25 °C by using a flow rate of 30 μL/min, with 90 s monitoring of association and 90 s monitoring of dissociation. Regeneration of the surfaces was performed, when necessary, by a 10 s injection of 5 mM NaOH. […] The corrected sensorgrams for each compound were fitted simultaneously using a 1:1 Langmuir model to obtain equilibrium dissociation constants (KD) and kinetic dissociation (koff) and association (kon) constants.

PRMT1 = PRMT1 (Homo sapiens, UniProt Q99873); experiment: AlphaLISA PRMT1 activity assay (H4R3me)
Chain of PRMT1 (Q99873 whole entry): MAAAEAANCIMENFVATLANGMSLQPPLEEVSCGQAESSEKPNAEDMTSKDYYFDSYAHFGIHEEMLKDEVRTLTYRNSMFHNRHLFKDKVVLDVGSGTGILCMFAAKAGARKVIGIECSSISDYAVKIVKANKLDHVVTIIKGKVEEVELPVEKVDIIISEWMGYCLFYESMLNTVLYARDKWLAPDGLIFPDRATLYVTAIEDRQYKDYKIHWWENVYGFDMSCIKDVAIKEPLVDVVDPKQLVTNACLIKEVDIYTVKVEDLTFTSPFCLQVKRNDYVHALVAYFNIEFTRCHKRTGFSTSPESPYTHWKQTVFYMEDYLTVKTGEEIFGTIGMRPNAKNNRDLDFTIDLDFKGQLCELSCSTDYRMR
Procedure: Then, we resolved to determine their effect on the catalytic activity of human recombinant PRMT1, chosen as representative of class I PRMTs. […] PRMT1 activity assays were performed by taking advantage of the AlphaLISA homogeneous proximity assay.
The reaction was incubated for 60 min, and then it was stopped by the addition of 5 μL of antimethyl-histone H4 arginine 3 (H4R3me) AlphaLISA acceptor beads (PerkinElmer, #AL150) (final concentration, 20 μg/mL) diluted in Epigenetic Buffer 1X (PerkinElmer, #AL008).
For each incubation step, the OptiPlate was sealed with protective foil to prevent evaporation and contamination. Donor and acceptor beads were added in subdued light.
The 100% activity (positive control) was reached using the vehicle (DMSO) while the 0% activity (negative control) was obtained without the protein. Data were analyzed using Excel software. Values obtained for each compound are mean ± SD determined for three separate experiments.

[2] = Parallel artificial membrane permeability assay (PAMPA); format: in vitro ADME; conditions: phosphate buffer pH 7.4, donor 0.2 mM, 24 h at room temperature
Procedure: A donor solution (0.2 mM) was prepared by diluting 20 mM dimethyl sulfoxide (DMSO) compound stock solution using phosphate buffer (pH 7.4, 0.01 M). Filters were coated with 5 μL of a 1% (w/v) dodecane solution of L-α-phosphatidylcholine. Donor solution (150 μL) was added to each well of the filter plate. To each well of the acceptor plate, 300 μL of solution (5% DMSO in phosphate buffer) was added. […] The sandwich was incubated for 24 h at room temperature under gentle shaking. After the incubation time, the sandwich plates were separated, and 250 μL of the acceptor plate was transferred to a UV quartz microtiter plate and measured by UV spectroscopy, using a Multiskan GO microplate spectrophotometer (Thermo Fisher Scientific) at 250–500 nm at a step of 5 nm. Reference solutions (250 μL) were prepared diluting the sample stock solutions to the same concentration as that with no membrane barrier.

SMYD3 = SMYD3 (Homo sapiens, UniProt Q9H7B4); experiment: HotSpot KMT activity assay, SMYD3; format: biochemical; conditions: 1 µM; mean ± SD, two experiments; read-out: % enzyme residual activ. after treatment with 12h, 1 µM, SMYD3
Chain of SMYD3 (Q9H7B4 whole entry): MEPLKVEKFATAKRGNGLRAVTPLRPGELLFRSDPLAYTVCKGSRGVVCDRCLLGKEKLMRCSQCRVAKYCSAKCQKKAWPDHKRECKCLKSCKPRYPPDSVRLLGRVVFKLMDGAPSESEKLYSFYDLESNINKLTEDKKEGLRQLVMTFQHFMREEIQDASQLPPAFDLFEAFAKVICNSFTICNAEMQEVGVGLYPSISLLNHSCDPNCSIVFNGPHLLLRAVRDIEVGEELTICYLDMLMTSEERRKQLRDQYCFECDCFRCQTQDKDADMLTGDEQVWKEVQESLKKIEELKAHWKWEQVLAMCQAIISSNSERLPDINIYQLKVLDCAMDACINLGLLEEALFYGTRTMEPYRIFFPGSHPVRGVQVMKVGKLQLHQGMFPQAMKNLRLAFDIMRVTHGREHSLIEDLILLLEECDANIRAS
Procedure: (§1) Then, ^3H-SAM (final concentration 1 μM) was delivered into the reaction mixture to initiate the reaction. After incubation for 60 min at 30 °C, the reaction mixture was delivered to filter-paper for detection (as assessed by scintillation). […] No inhibitor control (DMSO) was considered as 100% enzyme activity. Data were analyzed using Excel and GraphPad Prism 6.0 software (GraphPad Software Inc., San Diego, CA). Values obtained for each compound are mean ± SD determined for two separate experiments.

ASH1L = molecular target: T2, ASH1L (Homo sapiens, UniProt Q9NR48); experiment: HotSpot KMT activity assay, ASH1L; format: biochemical; conditions: 1 µM; mean ± SD, two experiments; read-out: % enzyme residual activ. after treatment with 12h, 1 µM, ASH1L
T2 construct: ASH1L (residues 2046–2330, with an N-terminal His-tag); His (N); purchased Reaction Biology Corporation
Procedure: as §1

G9a = G9a (Homo sapiens, UniProt Q96KQ7); experiment: HotSpot KMT activity assay, G9a; format: biochemical; conditions: mean ± SD, two experiments, read-out: % enzyme residual activ. after treatment with 12h, 1 µM, G9a
Chain of G9a (Q96KQ7 whole entry): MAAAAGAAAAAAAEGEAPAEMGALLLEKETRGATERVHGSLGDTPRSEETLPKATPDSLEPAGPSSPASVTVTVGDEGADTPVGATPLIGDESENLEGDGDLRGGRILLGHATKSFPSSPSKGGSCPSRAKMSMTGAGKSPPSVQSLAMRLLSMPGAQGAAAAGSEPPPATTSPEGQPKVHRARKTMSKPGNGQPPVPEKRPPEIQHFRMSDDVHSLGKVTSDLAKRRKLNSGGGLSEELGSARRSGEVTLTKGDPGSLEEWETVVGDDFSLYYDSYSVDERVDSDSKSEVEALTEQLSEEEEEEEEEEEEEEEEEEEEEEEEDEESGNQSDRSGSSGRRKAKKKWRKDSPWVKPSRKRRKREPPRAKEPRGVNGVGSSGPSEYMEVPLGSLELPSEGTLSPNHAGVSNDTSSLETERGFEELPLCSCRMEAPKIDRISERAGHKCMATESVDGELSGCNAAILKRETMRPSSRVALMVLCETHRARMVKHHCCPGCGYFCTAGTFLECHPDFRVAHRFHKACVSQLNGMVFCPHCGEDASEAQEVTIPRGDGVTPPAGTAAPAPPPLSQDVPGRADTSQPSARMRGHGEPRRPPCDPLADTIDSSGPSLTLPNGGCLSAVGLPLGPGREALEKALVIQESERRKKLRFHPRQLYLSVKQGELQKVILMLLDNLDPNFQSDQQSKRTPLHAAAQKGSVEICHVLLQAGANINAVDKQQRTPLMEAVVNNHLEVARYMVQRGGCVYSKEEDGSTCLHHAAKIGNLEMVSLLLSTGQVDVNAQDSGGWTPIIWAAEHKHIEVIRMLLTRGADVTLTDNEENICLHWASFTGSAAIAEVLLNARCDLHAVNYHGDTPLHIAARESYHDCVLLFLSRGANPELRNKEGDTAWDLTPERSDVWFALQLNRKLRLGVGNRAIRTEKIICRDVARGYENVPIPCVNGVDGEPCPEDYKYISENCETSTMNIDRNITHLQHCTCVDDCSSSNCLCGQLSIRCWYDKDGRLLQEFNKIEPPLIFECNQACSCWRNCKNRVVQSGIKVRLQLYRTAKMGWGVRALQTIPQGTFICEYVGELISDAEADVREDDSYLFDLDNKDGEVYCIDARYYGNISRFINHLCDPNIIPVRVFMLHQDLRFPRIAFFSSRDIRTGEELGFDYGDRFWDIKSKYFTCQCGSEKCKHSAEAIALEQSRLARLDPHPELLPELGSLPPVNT
Procedure: as §1

SUV39H2 = molecular target: T3, SUV39H2 (Homo sapiens, UniProt Q9H5I1); experiment: HotSpot KMT activity assay, SUV39H2; format: biochemical; conditions: 1 µM; mean ± SD, two experiments; read-out: % enzyme residual activ. after treatment with 12h, 1 µM, SUV39H2
T3 construct: SUV39H2 (residues 46–410, C-terminus); N-terminal fusion protein with a C-terminal His-tag; His (C); purchased Reaction Biology Corporation
T3 sequence (Q9H5I1 46-410): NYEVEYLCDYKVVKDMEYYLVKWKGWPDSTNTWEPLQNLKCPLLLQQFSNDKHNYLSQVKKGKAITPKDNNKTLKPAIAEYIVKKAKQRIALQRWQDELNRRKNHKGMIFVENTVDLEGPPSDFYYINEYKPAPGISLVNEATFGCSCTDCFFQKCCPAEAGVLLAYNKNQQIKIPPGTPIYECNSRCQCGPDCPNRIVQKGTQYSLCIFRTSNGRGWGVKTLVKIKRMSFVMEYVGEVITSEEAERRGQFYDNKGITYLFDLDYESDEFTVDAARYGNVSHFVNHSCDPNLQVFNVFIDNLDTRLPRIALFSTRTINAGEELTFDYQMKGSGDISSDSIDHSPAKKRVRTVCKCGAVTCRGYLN
Procedure: as §1

SETD8 = molecular target: T4, SETD8 (Homo sapiens, UniProt Q9NQR1); experiment: HotSpot KMT activity assay, SETD8; format: biochemical; conditions: 1 µM; mean ± SD, two experiments; read-out: % enzyme residual activ. after treatment with 12h, 1 µM, SETD8
T4 construct: SETD8 (residues 190–352, C-terminus); N-terminal His-tag; His (N); purchased Reaction Biology Corporation
T4 sequence (Q9NQR1 231-393): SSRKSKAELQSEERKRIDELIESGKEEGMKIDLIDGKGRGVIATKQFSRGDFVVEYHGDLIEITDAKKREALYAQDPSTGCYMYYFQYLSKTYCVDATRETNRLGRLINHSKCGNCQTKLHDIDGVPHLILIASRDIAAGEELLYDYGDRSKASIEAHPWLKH
Procedure: as §1

PRMT4 (HEK293T cells) = experiment: Western blot with pan-PRMT4 substrate antibody, HEK293T; conditions: HEK293T; 10 and 50 μM; 24 h; PRMT4sub immunoblot
Procedure: HEK293T or MCF7 cells were treated with different compounds and then harvested and lysed at the indicated time, and the cell lysates were applied to Western blot analysis. In brief, cells were harvested and washed three times with cold PBS, and then cell lysis buffer (50 mM Tris-HCl, pH 7.5, 150 mM NaCl, 1% Nonidet P-40, 0.1% SDS, 1% sodium deoxycholate, 5 mM EDTA, supplemented with proteinase inhibitor mixture) was added to obtain the cell lysates. Cell debris was pelleted and discarded, whereas the supernatant was kept. Protein samples were added with SDS loading buffer and boiled for 10 min, followed by SDS-PAGE. Then the proteins were transferred to a PVDF membrane. The membrane was blocked with 5% fat-free milk for 1 h at room temperature and then incubated with primary antibodies (antihistone H3, Abcam, #ab18521; pan-PRMT4 substrate antibody, made in-house) at 4 °C overnight. The blot was then washed three times with PBST and incubated with secondary antibodies for 1 h at room temperature. After being washed three times with PBST, the membrane was incubated with ECL reagent, and the signals were detected on X-ray film.
The anti-PRMT4 substrate antibody was raised against the R388 site in the transcription factor NFIB.

DOT1L = molecular target: T5, DOT1L (Homo sapiens, UniProt Q8TEK3); experiment: HotSpot KMT activity assay, DOT1L; format: biochemical; conditions: mean ± SD, two experiments, read-out: % enzyme residual activ. after treatment with 12h, 1 µM, DOT1L
T5 construct: DOT1L (residues 1–416); N-terminal GST-tag; GST (N); purchased Reaction Biology Corporation
T5 sequence (Q8TEK3 1-416): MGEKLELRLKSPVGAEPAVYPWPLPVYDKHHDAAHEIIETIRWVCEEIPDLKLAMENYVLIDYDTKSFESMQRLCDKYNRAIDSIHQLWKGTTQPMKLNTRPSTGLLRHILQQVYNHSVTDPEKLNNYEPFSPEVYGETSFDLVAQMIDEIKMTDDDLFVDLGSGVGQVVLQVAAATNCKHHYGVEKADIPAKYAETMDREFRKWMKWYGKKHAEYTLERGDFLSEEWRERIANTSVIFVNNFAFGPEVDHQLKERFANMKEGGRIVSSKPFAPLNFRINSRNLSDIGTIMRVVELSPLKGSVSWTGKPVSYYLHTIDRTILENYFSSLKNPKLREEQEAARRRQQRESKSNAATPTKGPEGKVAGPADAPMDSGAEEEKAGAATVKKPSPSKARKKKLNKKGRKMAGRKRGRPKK
Procedure: as §1

SUV420H1 = molecular target: T6, SUV420H1 (Homo sapiens, UniProt Q4FZB7); experiment: HotSpot KMT activity assay, SUV420H1; format: biochemical; conditions: 1 µM; mean ± SD, two experiments; read-out: % enzyme residual activ. after treatment with 12h, 1 µM, SUV420H1
T6 construct: SUV420H1-tv2 (residues 2–393); C-terminus; N-terminal GST-tag; GST (N); purchased Reaction Biology Corporation
T6 sequence (Q4FZB7 2-393 isoform Q4FZB7-2): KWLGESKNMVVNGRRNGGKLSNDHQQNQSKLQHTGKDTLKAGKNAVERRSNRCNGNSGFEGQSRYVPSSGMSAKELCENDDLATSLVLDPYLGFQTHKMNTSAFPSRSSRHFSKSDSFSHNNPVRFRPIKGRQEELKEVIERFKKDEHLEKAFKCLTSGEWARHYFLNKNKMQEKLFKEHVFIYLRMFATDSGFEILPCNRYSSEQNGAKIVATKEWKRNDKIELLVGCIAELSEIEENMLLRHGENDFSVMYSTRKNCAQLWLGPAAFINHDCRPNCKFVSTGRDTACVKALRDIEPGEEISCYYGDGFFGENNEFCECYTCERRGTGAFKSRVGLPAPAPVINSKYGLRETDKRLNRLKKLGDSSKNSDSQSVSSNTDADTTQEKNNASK
Procedure: as §1

[3] = SPR, immobilized PRMT4, 25 °C, KD from ratio koff/kon
[4] = SPR, immobilized PRMT4, read-out: kon
[5] = supplementary csv, read-out: SPR KON for PRMT4

Compound | koff ([1]; SPR, immobilized PRMT4) [s⁻¹] | Kd [1, 3] [nM] | kon [1, 4] [M⁻¹ s⁻¹] | τR [1] [s] | IC50 (PRMT1) [nM] | Kd [1] [nM] | SPR tR for PRMT4 ([1]; supplementary csv) [s] | kon [1, 5] [M⁻¹ s⁻¹] | Papp at 24 h, 0.2 mM [2] [×10⁻⁶ cm/s] | remaining activity at 1 µM (SMYD3) [%] | remaining activity at 1 µM (ASH1L) [%] | remaining activity at 1 µM (G9a) [%] | remaining activity at 1 µM (SUV39H2) [%] | remaining activity at 1 µM (SETD8) [%] | cellular level of arginine methylation catalyzed by PRMT4 (PRMT4 (HEK293T cells)) | remaining activity at 1 µM (DOT1L) [%] | remaining activity at 1 µM (SUV420H1) [%]
COC(=O)c1cc(O)c2cc(NC(=O)NCCCCCNC(=N)NC[C@H]3O[C@@H](n4cnc5c(N)ncnc54)[C@H](O)[C@@H]3O)ccc2c1 [12c, Methyl 6-(3-(5-(3-(((2R,3S,4R,5R)-5-(6-Amino-9H-purin-9-yl)-3,4-dihydroxytetrahydrofuran-2-yl)methyl)guanidino)pentyl)ureido)-4-hydroxy-2-naphthoate] | 0.013 | 359 | 34900 | 76.9 | 300 |  |  |  |  |  |  |  |  |  |  |  | 
COC(=O)c1cc(O)c2cc(NC(=O)NCCCCNC(=N)NC/C=C/[C@H]3O[C@@H](n4cnc5c(N)ncnc54)[C@H](O)[C@@H]3O)ccc2c1 [12h, Methyl 6-(3-(4-(3-((E)-3-((2R,3S,4R,5R)-5-(6-Amino-9H-purin-9-yl)-3,4-dihydroxytetrahydrofuran-2-yl)allyl)guanidino)butyl)ureido)-4-hydroxy-2-naphthoate] |  |  |  |  |  |  |  |  | 0.038 | 72.83 ± 0.68 | 90.76 ± 0.13 | 102 ± 1.67 | 114 ± 1.92 | 130 ± 6.36 | able to reduce the activity of PRMT4 in a concentration-dependent way | 97.7 ± 3.48 | 104 ± 1.13

More lines, main results first:

koff ([1]; SPR, immobilized PRMT4) [s⁻¹] | Kd [1, 3] [nM] | kon [1, 4] [M⁻¹ s⁻¹] | τR [1] [s] | IC50 (PRMT1) [nM] | Kd [1] [nM] | SPR tR for PRMT4 ([1]; supplementary csv) [s] | kon [1, 5] [M⁻¹ s⁻¹] | Papp at 24 h, 0.2 mM [2] [×10⁻⁶ cm/s] | Compound | remaining activity at 1 µM (SMYD3) [%] | remaining activity at 1 µM (ASH1L) [%] | remaining activity at 1 µM (G9a) [%] | remaining activity at 1 µM (SUV39H2) [%] | remaining activity at 1 µM (SETD8) [%] | cellular level of arginine methylation catalyzed by PRMT4 (PRMT4 (HEK293T cells)) | remaining activity at 1 µM (DOT1L) [%] | remaining activity at 1 µM (SUV420H1) [%]
0.015 | 603 | 25800 | 66.7 |  |  |  |  |  | COC(=O)c1cc(O)c2cc(NC(=O)NCCCCCCCNC(=N)NC[C@H]3O[C@@H](n4cnc5c(N)ncnc54)[C@H](O)[C@@H]3O)ccc2c1 [12e, Methyl 6-(3-(7-(3-(((2R,3S,4R,5R)-5-(6-Amino-9H-purin-9-yl)-3,4-dihydroxytetrahydrofuran-2-yl)methyl)guanidino)heptyl)ureido)-4-hydroxy-2-naphthoate] |  |  |  |  |  |  |  | 
0.068 |  | 2.7e+06 | 14.7 |  | 25.2 | 14.7 | 2.7e+06 | 0.055 | COC(=O)c1cc(O)c2cc(NC(=O)NCCCCNC(=N)NCC[C@H]3O[C@@H](n4cnc5c(N)ncnc54)[C@H](O)[C@@H]3O)ccc2c1 [12f, Methyl 6-(3-(4-(3-(2-((2R,3S,4R,5R)-5-(6-Amino-9H-purin-9-yl)-3,4-dihydroxytetrahydrofuran-2-yl)ethyl)guanidino)butyl)ureido)-4-hydroxy-2-naphthoate] |  |  |  |  |  |  |  | 
0.013 | 51.7 | 250000 | 76.9 |  |  | 76.9 | 247000 | 0.039 | COC(=O)c1cc(O)c2cc(NC(=O)NCCCCNC(=N)NCCC[C@H]3O[C@@H](n4cnc5c(N)ncnc54)[C@H](O)[C@@H]3O)ccc2c1 [12g, Methyl 6-(3-(4-(3-(3-((2R,3S,4R,5R)-5-(6-Amino-9H-purin-9-yl)-3,4-dihydroxytetrahydrofuran-2-yl)propyl)guanidino)butyl)ureido)-4-hydroxy-2-naphthoate] |  |  |  |  |  |  |  | 
